Key:
IL-17A/F = molecular target: T1, IL-17A/F (Homo sapiens, UniProt Q16552+Q96PD4); test: IL-17A/F HEK-Blue cell assay (SEAP reporter); type: cell-based; settings: HEK-Blue IL-17A reporter cells, IL17A/F 5 ng/mL, 20 hours, SEAP read at A630; read-out: HEK-Blue IL17AF (IC50 for IL-17A/F inhibition)
T1 construct: purchased R&D Systems
T1 sequence (Q16552 24-155): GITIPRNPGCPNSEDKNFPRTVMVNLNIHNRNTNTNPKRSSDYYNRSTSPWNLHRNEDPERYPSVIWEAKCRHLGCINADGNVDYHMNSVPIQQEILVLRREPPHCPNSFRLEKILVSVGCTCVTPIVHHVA
T1 sequence (Q96PD4 31-163): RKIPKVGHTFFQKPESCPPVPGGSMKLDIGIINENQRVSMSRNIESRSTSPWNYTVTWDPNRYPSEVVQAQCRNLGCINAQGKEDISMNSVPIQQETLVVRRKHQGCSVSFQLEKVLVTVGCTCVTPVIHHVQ

IL-17A/A = molecular target: T2, IL-17A/A (Homo sapiens, UniProt Q16552); test: IL-17A/A HEK-Blue cell assay (SEAP reporter); type: cell-based; settings: HEK-Blue IL-17A reporter cells, IL17A/A 5 ng/mL, 20 hours, SEAP read at A630; read-out: HEK-Blue IL17AA (IC50 for IL-17A/A inhibition)
T2 construct: purchased Genscript Z03228
T2 sequence (Q16552 24-155): T1 sequence (Q16552 24-155)

Row | IC50 (IL-17A/F) | IC50 (IL-17A/A) | Structure (SMILES)
1 | < 100 nM | < 100 nM | CCn1nccc1C(=O)N[C@H](c1cn2nc(C[C@H]3C[C@@H](C(F)(F)F)CNC3=O)c(C3CCOCC3)nc2n1)[C@H]1CCCC(F)(F)C1 [Compound 66, N—((S)—((S)-3,3-difluorocyclohexyl)(2-(((3R,5R)-2-oxo-5-(trifluoromethyl)piperidin-3-yl)methyl)-3-(tetrahydro-2H-pyran-4-yl)imidazo[1,2-b][1,2,4]triazin-6-yl)methyl)-1-ethyl-11H-pyrazole-5-carboxamide]
2 | < 100 nM | < 100 nM | CCn1nccc1C(=O)N[C@H](c1cn2nc(C[C@H]3C[C@@H](C(F)(F)F)CNC3=O)c(C3CCOCC3)nc2n1)[C@@H]1CCCC(F)(F)C1 [Compound 67, N—((S)—((R)-3,3-difluorocyclohexyl)(2-(((3R,5R)-2-oxo-5-(trifluoromethyl)piperidin-3-yl)methyl)-3-(tetrahydro-2H-pyran-4-yl)imidazo[1,2-b][1,2,4]triazin-6-yl)methyl)-1-ethyl-1H-pyrazole-5-carboxamide]
3 | < 100 nM | < 100 nM | CCn1nccc1C(=O)N[C@H](c1cn2nc(C[C@H]3C[C@@H](C(F)(F)F)CNC3=O)c(C3CCOCC3)nc2n1)[C@H]1CC[C@H](C)CC1 [Compound 78, 1-ethyl-N-((1S)-((1r,4S)-4-methylcyclohexyl)(2-(((3R,5R)-2-oxo-5-(trifluoromethyl)piperidin-3-yl)methyl)-3-(tetrahydro-2H-pyran-4-yl)imidazo[1,2-b][1,2,4]triazin-6-yl)methyl)-1H-pyrazole-5-carboxamide]
4 | 100 to 1000 nM | < 100 nM | CCn1nccc1C(=O)N[C@H](c1cn2nc(C[C@H]3C[C@@H](C(F)(F)F)CNC3=O)c(C(C)C)nc2n1)C1CCC(F)(F)CC1 [Compound 87, N-((1S)-(4,4-difluorocyclohexyl)(3-isopropyl-2-(((3R,5R)-2-oxo-5-(trifluoromethyl)piperidin-3-yl)methyl)imidazo[1,2-b][1,2,4]triazin-6-yl)methyl)-1-ethyl-1H-pyrazole-5-carboxamide]
5 | 100 to 1000 nM | < 100 nM | CCn1nccc1C(=O)N[C@H](c1cn2nc(C[C@H]3C[C@@H](C(F)(F)F)CNC3=O)c(C(C)C)nc2n1)[C@H]1CC[C@H](C)CC1 [Compound 110, 1-ethyl-N-((1S)-(3-isopropyl-2-(((3R,5R)-2-oxo-5-(trifluoromethyl)piperidin-3-yl)methyl)imidazo[1,2-b][1,2,4]triazin-6-yl)((1r,4S)-4-methylcyclohexyl)methyl)-1H-pyrazole-5-carboxamide]
6 | 100 to 1000 nM | < 100 nM | CCn1nccc1C(=O)N[C@H](c1cn2nc(C[C@H]3C[C@@H](C(F)(F)F)CNC3=O)c(N(C)C)nc2n1)[C@H]1CCCC(F)(F)C1 [Compound 117, N—((S)—((S)-3,3-difluorocyclohexyl)(3-(dimethylamino)-2-(((3R,5R)-2-oxo-5-(trifluoromethyl)piperidin-3-yl)methyl)imidazo[1,2-b][1,2,4]triazin-6-yl)methyl)-1-ethyl-1H-pyrazole-5-carboxamide]
7 | 100 to 1000 nM | < 100 nM | CCn1nccc1C(=O)N[C@H](c1cn2nc(C[C@H]3C[C@@H](C(F)(F)F)CNC3=O)c(N(C)C)nc2n1)[C@@H]1CCCC(F)(F)C1 [Compound 119, N—((S)—((R)-3,3-difluorocyclohexyl)(3-(dimethylamino)-2-(((3R,5R)-2-oxo-5-(trifluoromethyl)piperidin-3-yl)methyl)imidazo[1,2-b][1,2,4]triazin-6-yl)methyl)-1-ethyl-1H-pyrazole-5-carboxamide]
8 | < 100 nM | < 100 nM | CCn1nccc1C(=O)N[C@H](c1cn2nc(C[C@H]3C[C@@H](C(F)(F)F)CNC3=O)c(N3CCO[C@H](C)C3)nc2n1)[C@H]1CCCC(F)(F)C1 [Compound 121, N—((S)—((S)-3,3-difluorocyclohexyl)(3-((R)-2-methylmorpholino)-2-(((3R,5R)-2-oxo-5-(trifluoromethyl)piperidin-3-yl)methyl)imidazo[1,2-b][1,2,4]triazin-6-yl)methyl)-1-ethyl-1H-pyrazole-5-carboxamide]
9 | 100 to 1000 nM | < 100 nM | CCn1nccc1C(=O)N[C@H](c1cn2nc(C[C@H]3C[C@@H](C(F)(F)F)CNC3=O)c(N3CCO[C@@H](C)C3)nc2n1)[C@H]1CCCC(F)(F)C1 [Compound 123, N—((S)—((S)-3,3-difluorocyclohexyl)(3-((S)-2-methylmorpholino)-2-(((3R,5R)-2-oxo-5-(trifluoromethyl)piperidin-3-yl)methyl)imidazo[1,2-b][1,2,4]triazin-6-yl)methyl)-1-ethyl-1H-pyrazole-5-carboxamide]
10 | 100 to 1000 nM | < 100 nM | CC(C)n1nccc1C(=O)N[C@H](c1cn2nc(C[C@H]3C[C@@H](C(F)(F)F)CNC3=O)c(C3CCOCC3)nc2n1)[C@@H]1CCCC(F)(F)C1 [Compound 127, N-((1S)—((R)-3,3-difluorocyclohexyl)(2-(((3R,5R)-2-oxo-5-(trifluoromethyl)piperidin-3-yl)methyl)-3-(tetrahydro-2H-pyran-4-yl)imidazo[1,2-b][1,2,4]triazin-6-yl)methyl)-1-isopropyl-1H-pyrazole-5-carboxamide]
11 | > 1000 nM | < 100 nM | O=C(N[C@H](c1cn2nc(C[C@H]3C[C@@H](C(F)(F)F)CNC3=O)c(C3CCOCC3)nc2n1)C1CCC(F)(F)CC1)c1nonc1C1CC1 [Compound 136, 4-cyclopropyl-N-((1S)-(4,4-difluorocyclohexyl)(2-(((3R,5R)-2-oxo-5-(trifluoromethyl)piperidin-3-yl)methyl)-3-(tetrahydro-2H-pyran-4-yl)imidazo[1,2-b][1,2,4]triazin-6-yl)methyl)-1,2,5-oxadiazole-3-carboxamide]
12 | 100 to 1000 nM | < 100 nM | CCn1nccc1C(=O)N[C@H](c1cn2nc(C[C@H]3C[C@@H](C(F)(F)F)CNC3=O)c(C3CCOCC3)nc2n1)C(C1CC1)C1CC1 [Compound 137, N-((1S)-2,2-dicyclopropyl-1-(2-(((3R,5R)-2-oxo-5-(trifluoromethyl)piperidin-3-yl)methyl)-3-(tetrahydro-2H-pyran-4-yl)imidazo[1,2-b][1,2,4]triazin-6-yl)ethyl)-1-ethyl-1H-pyrazole-5-carboxamide]
13 | 100 to 1000 nM | < 100 nM | CCn1nccc1C(=O)N[C@H](c1cn2nc(C[C@H]3C[C@H](C(F)(F)F)CNC3=O)c(C3CCOCC3)nc2n1)C1CCC(F)(F)CC1 [Compound 140, N-((1S)-(4,4-difluorocyclohexyl)(2-(((3R,5S)-2-oxo-5-(trifluoromethyl)piperidin-3-yl)methyl)-3-(tetrahydro-2H-pyran-4-yl)imidazo[1,2-b][1,2,4]triazin-6-yl)methyl)-1-ethyl-1H-pyrazole-5-carboxamide]
14 | < 100 nM | < 100 nM | CCn1nccc1C(=O)N[C@H](c1cn2nc(C[C@H]3C[C@@H](C(F)(F)F)CNC3=O)c(CC3CCOCC3)nc2n1)C1CCC(F)(F)CC1 [Compound 141, N-((1S)-(4,4-difluorocyclohexyl)(2-(((3R,5R)-2-oxo-5-(trifluoromethyl)piperidin-3-yl)methyl)-3-((tetrahydro-2H-pyran-4-yl)methyl)imidazo[1,2-b][1,2,4]triazin-6-yl)methyl)-1-ethyl-1H-pyrazole-5-carboxamide]
15 | > 1000 nM | < 100 nM | CCn1nccc1C(=O)N[C@H](c1cn2nc(C[C@H]3C[C@@H](C(F)(F)F)CNC3=O)c(CN3CCOCC3)nc2n1)C1CCC(F)(F)CC1 [Compound 142, N—((S)-(4,4-difluorocyclohexyl)(3-(morpholinomethyl)-2-(((3R,5R)-2-oxo-5-(trifluoromethyl)piperidin-3-yl)methyl)imidazo[1,2-b][1,2,4]triazin-6-yl)methyl)-1-ethyl-1H-pyrazole-5-carboxamide]
16 | 100 to 1000 nM | < 100 nM | CCn1nccc1C(=O)N[C@H](c1cn2nc(C[C@H]3C[C@@H](C(F)(F)F)CNC3=O)c(N(C)C3CC3)nc2n1)C1CCC(F)(F)CC1 [Compound 143, N—((S)-(3-(cyclopropyl(methyl)amino)-2-(((3R,5R)-2-oxo-5-(trifluoromethyl)piperidin-3-yl)methyl)imidazo[1,2-b][1,2,4]triazin-6-yl)(4,4-difluorocyclohexyl)methyl)-1-ethyl-1H-pyrazole-5-carboxamide]
17 | 100 to 1000 nM | < 100 nM | CCc1nocc1C(=O)N[C@H](c1cn2nc(C[C@H]3C[C@@H](C(F)(F)F)CNC3=O)c(C3CCOCC3)nc2n1)C1CCC(F)(F)CC1 [Compound 146, N-((1S)-(4,4-difluorocyclohexyl)(2-(((3R,5R)-2-oxo-5-(trifluoromethyl)piperidin-3-yl)methyl)-3-(tetrahydro-2H-pyran-4-yl)imidazo[1,2-b][1,2,4]triazin-6-yl)methyl)-3-ethylisoxazole-4-carboxamide]
18 | 100 to 1000 nM | < 100 nM | CC(C)n1nccc1C(=O)N[C@H](c1cn2nc(C[C@H]3C[C@@H](C(F)(F)F)CNC3=O)c(C3CCOCC3)nc2n1)C1CCC(F)(F)CC1 [Compound 147, N-((1S)-(4,4-difluorocyclohexyl)(2-(((3R,5R)-2-oxo-5-(trifluoromethyl)piperidin-3-yl)methyl)-3-(tetrahydro-2H-pyran-4-yl)imidazo[1,2-b][1,2,4]triazin-6-yl)methyl)-1-isopropyl-1H-pyrazole-5-carboxamide]
